Source: patent US4783442A, “B-cell differentiating peptides” (Ortho Pharmaceutical Corporation, priority 1986, dated 1988)
Where a SMILES comes first, the peptide text is derived from it.

Legend:
[1] = tested on: pro-Lyb-2 cells; experiment: Induction assay: Lyb-2 expression (B-cell differentiation); format: cell-based, mouse; details: 3 hr incubation; compared with natural bursopoietin at the same concentration
Method: To determine the activity and immunological characteristics of one of the subject peptide, certain related peptides prepared in the above Examples, and natural bursopoietin, an induction assay was carried out substantially as described in Audhya, et al., Proc. Natl. Acad. Sci. USA, 81,2847 (1984).
In brief, prothymocytes (Thy-1^-) and pro-Lyb-2 cells were coenriched from B6-Lyb-2.1 congenic mouse spleen by bovine serum albumin density gradient centrifugation (Path-O-Cyte 5, lot 35, 1 ml of 35/29/26/23/18/12%). The 26/23 and 23/18 interface layers were combined, and Thy-1^+ and Lyb-2^+ cells were removed by reaction with monoclonal Thy-1.2 and Lyb-2.1 antibodies prepared according to Scheid, et al., Immunogenetics, 9, 423-433 (1979), and adherence to plates coated with affinity-purified rabbit anti-mouse F(ab)2. The washed nonadherent cells were used for both assays. This starting population contained 30-40% prothymocytes and 30-40% pro-Lyb-2 cells (known to represent separate committed precursor populations) as described in Scheid, et al., J. Exp. Med., 147, 1727-1743 (1978).
Cells (5×10^6 cells per 0.5 ml of RPMI 1640 medium) were incubated in 5-ml plastic tubes with equal volumes of test compound in serial dilution in RPMI 1640 medium in a humidified 5% CO2 atmosphere for 3 hr. […]

[2] = tested on: pro-Lyb-2 cells; details: from the referenced articles; cited from earlier work

| Compound | activity in differentiation induction assay (FIG. 1) [1] | induction of differentiation of T-cells and B-cells [2] |
| --- | --- | --- |
| NCCCC[C@H](N)C(=O)N[C@@H](Cc1c[nH]cn1)C(=O)NCC(N)=O [H-LYS-HIS-GLY-NH2, L-Lysyl-L-Histidyl-Glycineamide] (H-Lys-His-Gly-NH2) | possessed the activity of the natural isolate | – |
| ubiquitin | – | nonselectively induce the differentiation of both T-cells and B-cells |
